In patent US7820623B2 (priority 2006, dated 2010):
Bridge positions count the residues as written; N and C are the ends. Square brackets hold non-standard residues; d marks the D form. Peptide text beside a SMILES is read from it. 1Nal = N[C@@H](Cc1cccc2ccccc12)C(=O)O

Key:
[1] = test system: IL-2R on CD4+ T cells in human whole blood; assay type: cell-based
[2] = test system: thapsigargin-induced IFN-g production in human whole blood; assay type: cell-based; settings: for IC50: read-out: Analogue Activity (IC50) WB/IFNg
[3] = test system: CD40L on CD4+ T cells in human whole blood; assay type: cell-based
[4] = test system: thapsigargin-induced IL-2 production in human whole blood; settings: for IC50: read-out: Analogue Activity (IC50) WB/IL-2
human Kv1.1 = target: T1, human Kv1.1 (Homo sapiens, UniProt Q09470); assay type: cell-based
T1 construct: expressed in transfected cells; host or cells: HEK293

human Kv1.3 (CHO) = target: T2, human Kv1.3 (CHO) (Homo sapiens, UniProt P22001); experiment: cell-based; assay type: cell-based
T2 construct: expressed in transfected cells

human Kv1.1 (HEK293) = target: T3, human Kv1.1 (HEK293) (Homo sapiens, UniProt Q09470); experiment: cell-based
T3 construct: expressed in transfected cells; host or cells: HEK293

human Kv1.3 = human Kv1.3 (Homo sapiens, UniProt P22001); experiment: cell-based
human Kv1.3, sequence (P22001 whole entry): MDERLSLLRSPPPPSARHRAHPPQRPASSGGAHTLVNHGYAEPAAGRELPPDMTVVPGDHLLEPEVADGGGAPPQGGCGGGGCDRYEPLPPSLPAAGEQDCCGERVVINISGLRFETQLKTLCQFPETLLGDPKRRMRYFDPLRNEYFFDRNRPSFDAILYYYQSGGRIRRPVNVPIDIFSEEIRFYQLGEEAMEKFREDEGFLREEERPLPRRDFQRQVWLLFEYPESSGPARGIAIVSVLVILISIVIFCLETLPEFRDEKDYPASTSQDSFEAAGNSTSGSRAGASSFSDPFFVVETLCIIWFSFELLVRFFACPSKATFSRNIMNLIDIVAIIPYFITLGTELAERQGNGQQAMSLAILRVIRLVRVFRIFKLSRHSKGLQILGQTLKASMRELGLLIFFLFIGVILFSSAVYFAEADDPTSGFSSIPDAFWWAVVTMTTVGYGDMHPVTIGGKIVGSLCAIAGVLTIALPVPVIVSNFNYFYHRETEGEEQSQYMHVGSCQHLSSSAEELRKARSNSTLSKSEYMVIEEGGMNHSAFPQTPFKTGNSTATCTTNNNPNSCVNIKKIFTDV

T2 sequence (P22001 whole entry): as above
T1 sequence (Q09470 whole entry): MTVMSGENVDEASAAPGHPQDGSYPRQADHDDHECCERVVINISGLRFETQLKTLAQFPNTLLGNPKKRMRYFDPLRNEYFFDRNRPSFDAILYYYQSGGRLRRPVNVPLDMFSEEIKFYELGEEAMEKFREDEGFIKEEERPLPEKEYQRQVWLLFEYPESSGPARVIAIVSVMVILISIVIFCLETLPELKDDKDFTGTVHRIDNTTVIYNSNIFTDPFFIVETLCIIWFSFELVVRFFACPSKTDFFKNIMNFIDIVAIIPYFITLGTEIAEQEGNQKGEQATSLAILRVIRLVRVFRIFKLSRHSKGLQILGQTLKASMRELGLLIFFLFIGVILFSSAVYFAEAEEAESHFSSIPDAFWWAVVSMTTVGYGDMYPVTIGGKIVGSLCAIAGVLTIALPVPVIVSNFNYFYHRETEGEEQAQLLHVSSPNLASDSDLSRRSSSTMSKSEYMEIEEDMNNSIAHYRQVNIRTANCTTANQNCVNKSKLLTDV
T3 sequence (Q09470 whole entry): as above

Compound | IC50 (human Kv1.3 (CHO)) [nM] | IC50 [2] [nM] | IC50 (human Kv1.1 (HEK293)) [nM] | IC50 [4] [nM] | other results
IbTx: BKCa channel inhibitor iberiotoxin, purchased from Bachem (QFTDVDCSVSKECWSVCKDLFGVDRGKCMGKKCRCYQ; Definition of Artificial Sequence: Synthetic peptide) [reference compound] |  |  |  |  | thapsigargin-induced upregulation of the IL-2R on T cells [1]: no significant activity; thapsigargin-induced IFN-g production in human whole blood [2]: no significant activity; thapsigargin-induced upregulation of CD40L on T cells [3]: no significant activity; thapsigargin-induced IL-2 production in human whole blood [4]: no significant activity
Fc-L10-OSK1[E16K,K20D]: Fc-L10-OSK1 with glutamic acid to lysine at 16 and lysine to aspartic acid at 20 |  |  |  |  | blocking activity against Kv1.1 (human Kv1.1): removed the blocking activity against Kv1.1
CC[C@H](C)[C@@H]1NC(=O)[C@H](CCCCN)NC(=O)[C@@H](NC(=O)[C@H](CCCCN)NC(=O)[C@@H](NC(=O)[C@H](CC(N)=O)NC(=O)[C@@H](NC(=O)[C@@H](NC(=O)[C@@H](NC(=O)[C@@H](N)Cc2cccc3ccccc23)C(C)C)[C@@H](C)CC)[C@@H](C)CC)C(C)C)CSSC[C@@H]2NC(=O)[C@H](CCCCN)NC(=O)CNC(=O)[C@H](Cc3ccccc3)NC(=O)[C@H](CCCNC(=N)N)NC(=O)[C@H](CCSC)NC(=O)CNC(=O)[C@H](C)NC(=O)[C@H](CCCCN)NC(=O)[C@H](CCCCN)NC(=O)[C@@H]3CSSC[C@@H](C(=O)N[C@H](C(=O)N4CCC[C@H]4C(=O)N[C@@H](CCCCN)C(=O)O)[C@@H](C)O)NC(=O)[C@H](Cc4c[nH]cn4)NC(=O)[C@H](CSSC[C@H](NC(=O)[C@H](CCC(N)=O)NC(=O)[C@H](CCCNC(=N)N)NC(=O)[C@H](CO)NC1=O)C(=O)N[C@@H](CC(C)C)C(=O)N[C@@H](CCC(=O)O)C(=O)N1CCC[C@H]1C(=O)N3)NC(=O)[C@H](CCCCN)NC(=O)CNC(=O)[C@H](CC(N)=O)NC(=O)[C@H](CCSC)NC2=O [G1Nal] (H-[1Nal]VIINVKCKISRQCLEPCKKAGMRFGKCMNGKCHCTPK-OH; disulfide 8-28, 14-33, 18-35) | 0.0207 | 2.56 | 0.0339 | 2.79 | 
CC[C@H](C)[C@H](NC(=O)[C@@H](NC(=O)CN)C(C)C)C(=O)N[C@H](C(=O)N[C@@H](CC(N)=O)C(=O)N[C@H](C(=O)N[C@@H](CCCCN)C(=O)N[C@H]1CSSC[C@@H]2NC(=O)[C@H](CCCCN)NC(=O)CNC(=O)[C@H](Cc3ccccc3)NC(=O)[C@H](CCCNC(=N)N)NC(=O)[C@H](CCSC)NC(=O)CNC(=O)[C@H](C)NC(=O)[C@H](CCCCN)NC(=O)[C@H](CCCCN)NC(=O)[C@@H]3CSSC[C@@H](C(=O)N[C@H](C(=O)N4CCC[C@H]4C(=O)N[C@@H](CCCCN)C(=O)O)[C@@H](C)O)NC(=O)[C@H](Cc4c[nH]cn4)NC(=O)[C@H](CSSC[C@H](NC(=O)[C@H](CCC(N)=O)NC(=O)[C@H](CCCNC(=N)N)NC(=O)[C@H](CO)NC(=O)[C@H](Cc4cccc5ccccc45)NC(=O)[C@H](CCCCN)NC1=O)C(=O)N[C@@H](CC(C)C)C(=O)N[C@@H](CCC(=O)O)C(=O)N1CCC[C@H]1C(=O)N3)NC(=O)[C@H](CCCCN)NC(=O)CNC(=O)[C@H](CC(N)=O)NC(=O)[C@H](CCSC)NC2=O)C(C)C)[C@@H](C)CC [I10Nal] (H-GVIINVKCK[1Nal]SRQCLEPCKKAGMRFGKCMNGKCHCTPK-OH; disulfide 8-28, 14-33, 18-35) | 0.0454 | 0.257 | < 0.00152 | 0.184 | 
CC[C@H](C)[C@@H]1NC(=O)[C@H](CCCCN)NC(=O)[C@@H](NC(=O)[C@H](CCCCN)NC(=O)[C@@H](NC(=O)[C@H](CC(N)=O)NC(=O)[C@@H](NC(=O)[C@@H](NC(=O)[C@@H](NC(=O)CN)C(C)C)[C@@H](C)CC)[C@@H](C)CC)C(C)C)CSSC[C@@H]2NC(=O)[C@H](CCCCN)NC(=O)CNC(=O)[C@H](Cc3ccccc3)NC(=O)[C@H](CCCNC(=N)N)NC(=O)[C@H](CCSC)NC(=O)CNC(=O)[C@H](C)NC(=O)[C@H](CCCCN)NC(=O)[C@H](CCCCN)NC(=O)[C@@H]3CSSC[C@@H](C(=O)N[C@H](C(=O)N4CCC[C@H]4C(=O)N[C@@H](CCCCN)C(=O)O)[C@@H](C)O)NC(=O)[C@H](Cc4c[nH]cn4)NC(=O)[C@H](CSSC[C@H](NC(=O)[C@H](CCC(N)=O)NC(=O)[C@H](Cc4cccc5ccccc45)NC(=O)[C@H](CO)NC1=O)C(=O)N[C@@H](CC(C)C)C(=O)N[C@@H](CCC(=O)O)C(=O)N1CCC[C@H]1C(=O)N3)NC(=O)[C@H](CCCCN)NC(=O)CNC(=O)[C@H](CC(N)=O)NC(=O)[C@H](CCSC)NC2=O [R12Nal] (H-GVIINVKCKIS[1Nal]QCLEPCKKAGMRFGKCMNGKCHCTPK-OH; disulfide 8-28, 14-33, 18-35) | 0.0377 | 0.387 | 0.025 | 0.46 | 
Fc-L10-OSK1[K7S]: Fc-L10-OSK1 with lysine to serine at position 7 |  |  |  |  | change in Kv1.3 potency compared to Fc-L10-OSK1 (human Kv1.3): 2 fold; fold less potent than the synthetic OSK1 toxin peptide (Kv1.3 IC50) (human Kv1.3): approximately 10 fold; hKv1.1/hKv1.3 selectivity ratio (human Kv1.3): 269; IC50 (human Kv1.3; read-out: IC50 for block of the outward potassium current): 0.372 ± 0.071 nM; change in selectivity compared to Fc-L10-OSK1 (human Kv1.1): 1.3 fold
CC[C@H](C)[C@@H]1NC(=O)[C@H](CCCCN)NC(=O)[C@@H](NC(=O)[C@H](CCCCN)NC(=O)[C@@H](NC(=O)[C@H](CC(N)=O)NC(=O)[C@@H](NC(=O)[C@@H](NC(=O)[C@@H](NC(=O)CN)C(C)C)[C@@H](C)CC)[C@@H](C)CC)C(C)C)CSSC[C@@H]2NC(=O)[C@H](CCCCN)NC(=O)CNC(=O)[C@H](Cc3ccccc3)NC(=O)[C@H](CCCNC(=N)N)NC(=O)[C@H](CCSC)NC(=O)CNC(=O)[C@H](C)NC(=O)[C@H](CCCCN)NC(=O)[C@H](CCCCN)NC(=O)[C@@H]3CSSC[C@@H](C(=O)N[C@H](C(=O)N4CCC[C@H]4C(=O)N[C@@H](CCCCN)C(=O)O)[C@@H](C)O)NC(=O)[C@H](Cc4c[nH]cn4)NC(=O)[C@H](CSSC[C@H](NC(=O)[C@H](CCC(N)=O)NC(=O)[C@H](CCCNC(=N)N)NC(=O)[C@H](CO)NC1=O)C(=O)N[C@@H](CC(C)C)C(=O)N[C@@H](CCC(=O)O)C(=O)N1CCC[C@H]1C(=O)N3)NC(=O)[C@H](Cc1cccc3ccccc13)NC(=O)CNC(=O)[C@H](CC(N)=O)NC(=O)[C@H](CCSC)NC2=O [K32Nal] (H-GVIINVKCKISRQCLEPCKKAGMRFGKCMNG[1Nal]CHCTPK-OH; disulfide 8-28, 14-33, 18-35) | 0.0261 | 0.196 | 0.00191 | 0.134 | 
Fc-L10-OSK1[K7S,E16K,K20D]: Fc-L10-OSK1 with triple substitution K7S, E16K, K20D |  |  |  |  | IC50 (human Kv1.1; read-out: hKv1.1: IC50): 10 nM
